Experimental data taken from patent publication US20200239530A1, “COMPOUNDS AND METHODS OF MODULATING PROTEIN DEGRADATION” (Vividion Therapeutics, Inc., priority 2017, published 2020).

Legend:
[1] = target: T1, cysteine residue illustrated in Table 1A or Table 2A (Homo sapiens, UniProt P41002); experiment: Competitive cysteine profiling of cell lysate with desthiobiotin iodoacetamide probe (96-well sample prep); format: binding; settings: UniProt P41002; 100 uM
T1 construct: Cells were resuspended in cold PBS on ice and sonicated with a probe sonicator to achieve lysis; endogenous in cells
T1 sequence (P41002 whole entry): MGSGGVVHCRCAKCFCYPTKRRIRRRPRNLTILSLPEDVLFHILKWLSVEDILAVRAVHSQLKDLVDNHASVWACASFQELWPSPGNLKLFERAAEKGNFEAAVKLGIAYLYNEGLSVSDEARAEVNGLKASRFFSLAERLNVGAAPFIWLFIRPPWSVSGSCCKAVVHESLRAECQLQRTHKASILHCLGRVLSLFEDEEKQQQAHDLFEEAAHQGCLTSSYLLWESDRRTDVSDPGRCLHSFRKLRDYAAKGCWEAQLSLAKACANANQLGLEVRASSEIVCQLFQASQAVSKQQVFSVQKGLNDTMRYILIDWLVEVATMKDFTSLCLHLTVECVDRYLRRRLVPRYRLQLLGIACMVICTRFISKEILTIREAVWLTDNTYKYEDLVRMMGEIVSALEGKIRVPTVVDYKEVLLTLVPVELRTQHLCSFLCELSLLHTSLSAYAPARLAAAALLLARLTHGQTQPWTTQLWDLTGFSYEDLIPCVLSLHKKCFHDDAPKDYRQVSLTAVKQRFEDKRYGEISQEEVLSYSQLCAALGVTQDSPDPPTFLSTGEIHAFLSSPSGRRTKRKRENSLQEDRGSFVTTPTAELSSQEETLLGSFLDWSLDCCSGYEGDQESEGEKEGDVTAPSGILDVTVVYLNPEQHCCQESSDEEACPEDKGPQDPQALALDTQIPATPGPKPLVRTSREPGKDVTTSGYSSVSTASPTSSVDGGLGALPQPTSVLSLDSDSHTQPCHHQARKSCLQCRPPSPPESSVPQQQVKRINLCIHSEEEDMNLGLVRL
Procedure, shortened: (§1)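 Competitive profiling: compound and lysate (5 mg/ml protein) incubated 1 h at 25 °C before a 1 h, 25 °C desthiobiotin iodoacetamide probe step. Proteins were acetone-precipitated, reduced, alkylated and trypsinized; streptavidin-captured labelled peptides were eluted for MS analysis.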

[2] = target: T2, cysteine residue illustrated in Table 1A or Table 2A (Homo sapiens, UniProt P55774); experiment: as above; format: binding; settings: UniProt P55774
T2 construct: Cells were resuspended in cold PBS on ice and sonicated with a probe sonicator to achieve lysis; endogenous in cells
T2 sequence (P55774 21-89): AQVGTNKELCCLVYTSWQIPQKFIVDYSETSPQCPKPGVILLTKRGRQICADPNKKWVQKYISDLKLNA
Procedure, shortened: as §1

## C=CC(=O)N(c1ccccc1)c1ccc(Br)cc1 [KB05]
[1]
  KB05_100 uM_percent_inhibition: 49%
[2]; 100 uM
  KB05_100 uM_percent_inhibition: 5%
[2]; 500 uM
  KB05_500 uM_percent_inhibition: 51%
